Data taken from patent publication US9624213B2 (Plexxikon Inc., priority 2011, dated 2017).

Key:
COLO205 = COLO205 cell growth inhibitory activity (ATPlite); assay type: cell-based; details: Homo sapiens, COLO 205, 72 h; COLO205 cells, growth inhibition, 3 days
Method: (§1) Compounds are assessed in a variety of cell based assays. For example human cell lines with B-Raf V600E mutation (A375 melanoma, SKMEL3 melanoma, and COLO205 colon adenocarcinoma), as well as tumorigenic cell lines with wild-type B-RAF (SW620 colon adenocarcinoma) or with Ras mutations (SKMEL2 melanoma and IPC298 melanoma). Similar assays may be used to assess additional tumorigenic cell lines with Ras mutations, including, but not limited to, M202, M207, M243, M244, M296, S117, HCT116, HCT15, DLD1, MiaPaCa, A549, NCI-H23, NCI-H460, HOP62, MDA-MB231, Hs-578T, HL60, MOLT-4, and CCRF-CEM.
(§2) On day 1, cells are counted, then centrifuged in a conical tube for 5 minutes at 1000 rpm. The supernatant is removed and cells are re-suspended as follows: • SW620 (ATCC catalog #CCL-27): resuspend in Leibovitz's L-15 medium, 2 mM L-glutamine, 10% fetal bovine serum to 6×10^4 cells/mL. • A375 (ATCC catalog #CRL-1619): resuspend in Dulbecco's modified Eagle's medium, 4 mM L-glutamine, 4.5 g/L D-glucose, 10% fetal bovine serum to 6×10^4 cells/mL. • COLO205 (ATCC catalog #CCL-222): resuspend in RPMI 1640, 2 mM L-glutamine, 1.5 g/L sodium bicarbonate, 4.5 g/L D-glucose, 10 mM HEPES, 1.0 mM sodium pyruvate, 10% fetal bovine serum to 6×10^4 cells/mL. • SKMEL2 (ATCC catalog #HTB-68): resuspend in Minimum Eagle essential medium, 2 mM L-glutamine, 1.5 g/L sodium bicarbonate, 0.1 mM non-essential amino acids, 1.0 mM sodium pyruvate, 10% fetal bovine serum to 6×10^4 cells/mL. • SKMEL3 (ATCC catalog #HTB-69): resuspend in McCoy's 5A medium, 1.5 mM L-glutamine, 15% fetal bovine serum to 6×10^4 cells/mL. • IPC298 (DSMZ catalog #ACC 251): resuspend in RPMI 1640, 2 mM L-glutamine, 10% fetal bovine serum to 6×10^4 cells/mL.
(§3) The cells are plated, 50 μL in each well of a 96-well dish (Corning 3610) and incubated at 37° C. in 5% CO2 overnight, cells plated to a final concentration of cells as follows: • SW620: 5,000 cells per well. • A375: 2,000 cells per well. • COLO205: 2,000 cells per well. • SKMEL2: 2,000 cells per well. • SKMEL3: 3,000 cells per well. • IPC298: 2,000 cells per well.
(§4) On day 2, compound at a maximum concentration of 5 mM is serially diluted 1:3 (e.g. 10 μL with 30 μL dimethyl sulfoxide) for a total of 8 point titration with DMSO as a control. A 1 μL aliquot of each dilution point and control is added to 249 μL growth media and 50 μL is added to a well containing cells, providing 10 μM compound at the maximum concentration point. The cells are incubated for 3 days at 37° C. in 5% CO2.
(§5) On day 5, ATPlite 1 step Luminescence Assay System (Perkin Elmer #6016739) is brought to room temperature along with the cell cultures. ATPlite is added 25 μL to each well, shake for 2 minutes, and the cells are incubated at room temperature for 10 minutes, then luminescence is read on Satire reader. The measured luminescence correlates directly with cell number, such that the reading as a function of compound concentration is used to determine the IC50 value.

A375 = assay: A375_P-ERK / A375 cell activity; assay type: cell-based; details: Homo sapiens, A-375; A375 cells (A375_P-ERK)
Method: as §1, §2, §3, §4, §5

| Compound | IC50 (COLO205) | IC50 (A375) |
| --- | --- | --- |
| O=C(c1c(F)ccc(NS(=O)(=O)N2CCCC2)c1F)c1c[nH]c2ncc(F)c(I)c12 [Compound P-0015, N-[2,4-difluoro-3-(5-fluoro-4-iodo-1H-pyrrolo[2,3-b]pyridine-3-carbonyl)phenyl]pyrrolidine-1-sulfonamide] | > 1 µM | < 1 µM |
| O=C(c1c(F)ccc(NS(=O)(=O)N2CCCC2)c1F)c1c[nH]c2ncc(-c3ccc(Cl)cc3)cc12 [Compound P-0021] | < 1 µM | < 1 µM |
| CN(C)c1ncc(-c2cnc3[nH]cc(C(=O)c4c(F)ccc(NS(=O)(=O)N5CCCC5)c4F)c3c2)cn1 [Compound P-0022] | < 1 µM | < 1 µM |
| O=C(c1c(F)ccc(NS(=O)(=O)N2CCCC2)c1F)c1c[nH]c2ncc(I)cc12 [Compound P-0024] | > 1 µM | < 1 µM |
| Cc1ccc(-c2cnc3[nH]cc(C(=O)c4cccc(NS(=O)(=O)N(C)C)c4F)c3c2)cn1 [Compound P-0029] | < 1 µM | < 1 µM |
| CN(C)c1ccc(-c2cnc3[nH]cc(C(=O)c4cccc(NS(=O)(=O)N(C)C)c4F)c3c2)cn1 [Compound P-0030] | < 1 µM | < 1 µM |
| CCN(C)S(=O)(=O)Nc1cccc(C(=O)c2c[nH]c3ncc(-c4ccc(C#N)cc4)cc23)c1F [Compound P-0031] | < 1 µM | < 1 µM |
| CCN(C)S(=O)(=O)Nc1cccc(C(=O)c2c[nH]c3ncc(-c4cccnc4)cc23)c1F [Compound P-0032] | < 1 µM | < 1 µM |
| CCN(C)S(=O)(=O)Nc1cccc(C(=O)c2c[nH]c3ncc(-c4ccccc4)cc23)c1F [Compound P-0036, 3-[3-[[ethyl(methyl)sulfamoyl]amino]-2-fluoro-benzoyl]-5-phenyl-1H-pyrrolo[2,3-b]pyridine] | > 1 µM | < 1 µM |
| CN(C)S(=O)(=O)Nc1cccc(C(=O)c2c[nH]c3ncc(-c4ccccc4)cc23)c1F [Compound P-0037, 3-[3-(dimethylsulfamoylamino)-2-fluoro-benzoyl]-5-phenyl-1H-pyrrolo[2,3-b]pyridine] | > 1 µM | < 1 µM |
| COc1ncc(-c2cnc3[nH]cc(C(=O)c4cccc(NS(=O)(=O)N5CCC(OCc6ccccc6)C5)c4F)c3c2)cn1 (stereo not shown) [Compound P-0041, 3-benzyloxy-N-[2-fluoro-3-[5-(2-methoxypyrimidin-5-yl)-1H-pyrrolo[2,3-b]pyridine-3-carbonyl]phenyl]pyrrolidine-1-sulfonamide] |  | > 1 µM |
| CN(C)c1ccc(-c2cnc3[nH]cc(C(=O)c4cccc(NS(=O)(=O)N5CCCC5)c4F)c3c2)cn1 [Compound P-0046, N-[3-[5-[6-(dimethylamino)-3-pyridyl]-1H-pyrrolo[2,3-b]pyridine-3-carbonyl]-2-fluoro-phenyl]pyrrolidine-1-sulfonamide] | < 1 µM | < 1 µM |
| CCN(C)S(=O)(=O)Nc1cccc(C(=O)c2c[nH]c3ncc(-c4ccc(C5(C#N)CC5)cc4)cc23)c1F [Compound P-0061, 5-[4-(1-cyanocyclopropyl)phenyl]-3-[3-[[ethyl(methyl)sulfamoyl]amino]-2-fluoro-benzoyl]-1H-pyrrolo[2,3-b]pyridine] | < 1 µM | < 1 µM |
| COC(=O)CCS(=O)(=O)Nc1cccc(C(=O)c2c[nH]c3ncc(-c4cnc(OC)nc4)cc23)c1F [Compound P-0066, methyl 3-[[2-fluoro-3-[5-(2-methoxypyrimidin-5-yl)-1H-pyrrolo[2,3-b]pyridine-3-carbonyl]phenyl]sulfamoyl]propanoate] | < 1 µM | < 1 µM |
| COc1ncc(-c2cnc3[nH]cc(C(=O)c4cccc(NS(=O)(=O)C5CC5)c4F)c3c2)cn1 [Compound P-0067, N-[2-fluoro-3-[5-(2-methoxypyrimidin-5-yl)-1H-pyrrolo[2,3-b]pyridine-3-carbonyl]phenyl]cyclopropanesulfonamide] | > 1 µM | < 1 µM |
| COc1ncc(-c2cnc3[nH]cc(C(=O)c4cccc(NS(=O)(=O)N(C)C(C)C)c4F)c3c2)cn1 [Compound P-0075, 3-[2-fluoro-3-[[isopropyl(methyl)sulfamoyl]amino]benzoyl]-5-(2-methoxypyrimidin-5-yl)-1H-pyrrolo[2,3-b]pyridine] | > 1 µM | < 1 µM |
| CCCN(C)S(=O)(=O)Nc1ccc(F)c(C(=O)c2c[nH]c3ncc(-c4ccc(C5(C#N)CC5)cc4)cc23)c1F [Compound P-0079, 5-[4-(1-cyanocyclopropyl)phenyl]-3-[2,6-difluoro-3-[[methyl(propyl)sulfamoyl]amino]benzoyl]-1H-pyrrolo[2,3-b]pyridine] | < 1 µM | < 1 µM |
| CCCN(C)S(=O)(=O)Nc1cccc(C(=O)c2c[nH]c3ncc(-c4cnc(NC5CC5)nc4)cc23)c1F [Compound P-0082, 5-[2-(cyclopropylamino)pyrimidin-5-yl]-3-[2-fluoro-3-[[methyl(propyl)sulfamoyl]amino]benzoyl]-1H-pyrrolo[2,3-b]pyridine] | < 1 µM | < 1 µM |
| COc1ncc(-c2cnc3[nH]cc(C(=O)c4cccc(NS(=O)(=O)N(C)CC5CC5)c4F)c3c2)cn1 [Compound P-0083, 3-[3-[[cyclopropylmethyl(methyl)sulfamoyl]amino]-2-fluoro-benzoyl]-5-(2-methoxypyrimidin-5-yl)-1H-pyrrolo[2,3-b]pyridine] | < 1 µM | < 1 µM |
| CCCN(C)S(=O)(=O)Nc1cccc(C(=O)c2c[nH]c3ncc(-c4cnc(C5CC5)nc4)cc23)c1F [Compound P-0086, 5-(2-cyclopropylpyrimidin-5-yl)-3-[2-fluoro-3-[[methyl(propyl)sulfamoyl]amino]benzoyl]-1H-pyrrolo[2,3-b]pyridine] | < 1 µM | < 1 µM |
| CCN(C)S(=O)(=O)Nc1cccc(C(=O)c2c[nH]c3ncc(-c4ccc(C5CC5)nc4)cc23)c1F [Compound P-0087, 5-(6-cyclopropyl-3-pyridyl)-3-[3-[[ethyl(methyl)sulfamoyl]amino]-2-fluoro-benzoyl]-1H-pyrrolo[2,3-b]pyridine] | < 1 µM | < 1 µM |
| N#Cc1ncc(-c2cnc3[nH]cc(C(=O)c4cccc(NS(=O)(=O)N5CCCC5)c4F)c3c2)cn1 [Compound P-0091, N-[3-[5-(2-cyanopyrimidin-5-yl)-1H-pyrrolo[2,3-b]pyridine-3-carbonyl]-2-fluoro-phenyl]pyrrolidine-1-sulfonamide] | < 1 µM | < 1 µM |
| CCN(C)S(=O)(=O)Nc1cccc(C(=O)c2c[nH]c3ncc(-c4cncc(C#N)c4)cc23)c1F [Compound P-0101, 5-(5-cyano-3-pyridyl)-3-[3-[[ethyl(methyl)sulfamoyl]amino]-2-fluoro-benzoyl]-1H-pyrrolo[2,3-b]pyridine] |  | < 1 µM |
| CC1(C)CCN(S(=O)(=O)Nc2cccc(C(=O)c3c[nH]c4ncc(-c5cnc(C6CC6)nc5)cc34)c2F)C1 [Compound P-0246, N-[3-[5-(2-cyclopropylpyrimidin-5-yl)-1H-pyrrolo[2,3-b]pyridine-3-carbonyl]-2-fluoro-phenyl]-3,3-dimethyl-pyrrolidine-1-sulfonamide] |  | > 1 µM |
| CCOC(=O)C1CCCN1S(=O)(=O)Nc1cccc(C(=O)c2c[nH]c3ncc(-c4cnc(OC)nc4)cc23)c1F (stereo not shown) [Compound P-0257, ethyl 1-[[2-fluoro-3-[5-(2-methoxypyrimidin-5-yl)-1H-pyrrolo[2,3-b]pyridine-3-carbonyl]phenyl]sulfamoyl]pyrrolidine-2-carboxylate] | > 1 µM |  |
